Reference: ChEMBL document CHEMBL1130521, “A conformational study of ligands for omega modulatory sites of GABAa receptors by NOESY NMR spectroscopy and distance geometry” (Bioorg Med Chem Lett, 1997)
pIC50: −log10 of the molar value.

Experiments:
[1] = target: T1, Gamma-aminobutyric acid receptor subunit alpha-5 (Homo sapiens, UniProt P31644); assay: Inhibition of [3H]flumazenil binding to recombinant GABA-A receptor alpha-5 subunit in cerebellum; assay type: tissue-based
T1 sequence (P31644 whole entry): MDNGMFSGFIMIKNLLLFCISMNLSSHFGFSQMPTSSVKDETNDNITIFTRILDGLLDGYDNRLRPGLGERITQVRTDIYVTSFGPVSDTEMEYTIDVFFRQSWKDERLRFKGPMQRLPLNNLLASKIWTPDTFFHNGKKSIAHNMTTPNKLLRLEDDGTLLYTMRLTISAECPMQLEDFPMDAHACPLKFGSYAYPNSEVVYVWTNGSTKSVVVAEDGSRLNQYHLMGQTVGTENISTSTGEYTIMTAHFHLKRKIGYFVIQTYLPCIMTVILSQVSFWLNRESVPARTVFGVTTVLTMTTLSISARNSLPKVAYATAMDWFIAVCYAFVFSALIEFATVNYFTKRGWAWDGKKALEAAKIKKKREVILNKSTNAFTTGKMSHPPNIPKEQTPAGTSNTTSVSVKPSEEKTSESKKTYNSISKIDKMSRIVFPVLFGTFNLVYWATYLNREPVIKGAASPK

[2] = target: T1, Gamma-aminobutyric acid receptor subunit alpha-5; assay: Inhibition of [3H]flumazenil binding to recombinant GABA-A receptor alpha-5 subunit in spinal cord; assay type: tissue-based

pIC50 [1]: 8.57
pIC50 [2]: 8.34
SMILES: CCCC(=O)N(C)Cc1c(-c2ccc(Cl)cc2)nc2ccccn12
